Assays:
HBV = test: qPCR test in the HBV in vitro test (HBV DNA in HepG2.2.15 cells); type: cell-based; settings: Hepatitis B virus, 192 h, HBV DNA in HepG2.2.15 culture medium, day 8, read-out: Half maximal inhibitory concentration (EC50) of HBV
Protocol: To evaluate the inhibitory effect of the compound on HBV by detecting content of HBV DNA in HepG2.2.15 cells in a real-time qPCR test, with EC50 of the compound as an indicator.
3.1. HepG2.2.15 cells (4×10^4 cells/well) were inoculated into a 96-well plate and cultured at 37° C. in 5% CO2 overnight. 3.2. On day 2, the compound was 3-fold diluted in gradient for a total of 8 dilution gradients. The compound at different concentrations was added into the culture wells in duplicate. The final concentration of DMSO in the culture medium was 1%. 1 μM GLS4 was used as a 100% inhibition control (the structure of GLS4 disclosed in WO2008154817A1 is as follows:
1% DMSO was used as a 0% inhibition control. 3.3. On day 5, the culture medium was replaced with a fresh culture medium containing the compound. 3.4. On day 8, the culture medium in the culture wells was collected, and the high-throughput DNA purification kit (Qiagen-51162) was used to extract DNA. For specific steps, refer to the product manual.
3.6. Each well of the 96-well PCR plate was added with 15 μL of the reaction mixture, and then with 10 μL of sample DNA or HBV DNA standard. 3.7. The reaction conditions for PCR: heating at 95° C. for 10 min, degeneration at 95° C. for 15 s, and extension at 60° C. for 1 min, with a total of 40 cycles.
3.8.1. Calculation of the inhibition percentage: % Inh.=[1−(DNA copy number in the sample−DNA copy number in 1 μM GLS4)/(DNA copy number in the DMSO control−DNA copy number in 1 μM GLS4)]×100. 3.8.2. Calculation of EC50: half maximal inhibitory concentration (EC50) of the compound for HBV was calculated using GraphPad Prism software. 3.8.3.

hERG potassium channel = hERG potassium channel (Homo sapiens, UniProt Q12809); test: Inhibition test of the hERG potassium channel (automatic patch clamp, CHO-hERG cells); type: cell-based; settings: QPatch whole-cell patch clamp, room temperature
Protocol: To assay the effect of the compound disclosed herein on hERG potassium channel by using automatic patch-clamp method.
The cells stably expressing the hERG potassium channel used in the experiment were CHO-hERE from Aviva Biosciences. CHO-hERG was cultured at 37° C. in 5% CO2.
The CHO-hERG cells used in the experiment were cultured for at least two days, and the cell density reached 75% or more. Before the experiment, the cells were digested with TrypLE, and then the collected cells were resuspended in extracellular fluid.
The extracellular fluid needed to be prepared once a month. The intracellular fluid must be frozen in aliquots at −20° C.
The test compound and its positive control amitriptyline were dissolved in DMSO to obtain a stock solution at a certain concentration. […]
With a holding potential of −80 mv, a voltage stimulation of −50 my was applied for 80 ms to record the cell leakage current value; then hERG channel was opened by a depolarization to +20 my for 4800 ms and hERG tail current was elicited by a repolarization to −50 my for 5000 ms and recorded; and finally, the voltage was restored to the holding potential of −80 my and maintained for 3100 ms. […]
In each complete current recording, the inhibition percentage of each compound at the action concentration could be calculated based on the percentage of peak current in the negative control. […]

Sequence of hERG potassium channel (Q12809 whole entry): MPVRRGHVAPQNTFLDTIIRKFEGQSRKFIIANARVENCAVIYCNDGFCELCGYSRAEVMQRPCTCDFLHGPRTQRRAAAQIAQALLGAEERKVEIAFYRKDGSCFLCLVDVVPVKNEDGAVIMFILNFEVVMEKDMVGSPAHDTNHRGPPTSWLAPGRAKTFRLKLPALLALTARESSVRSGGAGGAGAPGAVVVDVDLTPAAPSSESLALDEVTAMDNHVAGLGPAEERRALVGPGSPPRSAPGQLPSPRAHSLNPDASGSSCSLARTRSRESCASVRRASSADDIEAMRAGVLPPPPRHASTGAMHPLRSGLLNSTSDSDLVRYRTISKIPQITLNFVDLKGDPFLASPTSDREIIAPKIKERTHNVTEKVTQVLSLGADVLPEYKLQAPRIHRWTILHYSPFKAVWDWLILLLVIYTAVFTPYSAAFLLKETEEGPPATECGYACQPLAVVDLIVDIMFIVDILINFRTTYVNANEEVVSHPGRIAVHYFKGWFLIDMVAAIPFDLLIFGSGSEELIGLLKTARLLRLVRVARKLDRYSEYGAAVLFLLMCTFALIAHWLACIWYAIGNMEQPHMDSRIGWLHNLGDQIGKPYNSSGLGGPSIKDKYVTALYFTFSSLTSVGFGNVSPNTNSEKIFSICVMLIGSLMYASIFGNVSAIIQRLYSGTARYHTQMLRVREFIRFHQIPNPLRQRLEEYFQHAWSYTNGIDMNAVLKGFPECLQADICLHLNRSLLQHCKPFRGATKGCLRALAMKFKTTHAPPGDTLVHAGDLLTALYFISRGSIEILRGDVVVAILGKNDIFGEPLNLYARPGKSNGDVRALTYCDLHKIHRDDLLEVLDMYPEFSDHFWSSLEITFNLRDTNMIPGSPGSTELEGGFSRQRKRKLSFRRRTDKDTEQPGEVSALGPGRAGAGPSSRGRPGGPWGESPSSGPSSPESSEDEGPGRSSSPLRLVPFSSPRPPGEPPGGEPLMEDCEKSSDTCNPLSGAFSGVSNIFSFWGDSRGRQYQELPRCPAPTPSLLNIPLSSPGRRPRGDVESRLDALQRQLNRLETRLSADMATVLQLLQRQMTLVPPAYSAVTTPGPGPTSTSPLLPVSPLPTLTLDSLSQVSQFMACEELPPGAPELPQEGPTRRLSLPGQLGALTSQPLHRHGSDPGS

C[C@]1(NC(=O)C(=O)c2c(Cl)c(C(=O)Nc3ccc(F)c(F)c3)c3n2CCC3)CC[C@H](CC(=O)O)CC1 [Compound 18] gave an EC50 (HBV) of 11 nM and an IC50 (hERG potassium channel) of over 40000 nM.

Work on C[C@]1(NC(=O)C(=O)c2c(Cl)c(C(=O)Nc3cc(F)c(F)c(F)c3)c3n2CCC3)CC[C@H](CC(=O)O)CC1 [Compound 25] yielded an EC50 (HBV) of 4 nM and an IC50 (hERG potassium channel) of over 40000 nM.

— patent US20220204510A1, “2,3-DIHYDRO-1H-PYRROLIZINE-7-FORMAMIDE DERIVATIVE AND APPLICATION THEREOF” (CHIA TAI TIANQING PHARMACEUTICAL GROUP CO., LTD., priority 2018, published 2022)
